This note sets out measurements from ChEMBL document CHEMBL4765419, “Design, synthesis and bioactivity evaluation of novel arylalkene-amide derivatives as dual-target antifungal inhibitors” (Eur J Med Chem, 2020).

In assay [1] the test system is Aspergillus fumigatus. The assay is described as follows: Antifungal activity against Aspergillus fumigatus assessed as inhibition of microbial growth by two fold broth microdilution method. Format: functional. Background: In broth dilution the organism is exposed to a series of concentrations in liquid medium.
Assay [2] has as its system Candida albicans. Briefly: Antifungal activity against Candida albicans assessed as inhibition of microbial growth by two fold broth microdilution method. In kind it is functional.
Assay [3] concerns Candida tropicalis. The assay is described as follows: Antifungal activity against Candida tropicalis assessed as inhibition of microbial growth by two fold broth microdilution method. In kind it is functional.
The subject of assay [4] is Pichia kudriavzevii. The assay is described as follows: Antifungal activity against Candida krusei assessed as inhibition of microbial growth by two fold broth microdilution method. In kind it is functional.
Assay [5] deals with Nakaseomyces glabratus. The assay is described as follows: Antifungal activity against Candida glabrata assessed as inhibition of microbial growth by two fold broth microdilution method. Format: functional.
In assay [6] the test system is Candida albicans. Briefly: Antifungal activity against fluconazole-resistant Candida albicans 17# assessed as inhibition of microbial growth by two fold broth microdilution method. Format: functional.
Assay [7] relates to Candida albicans. The assay is described as follows: Antifungal activity against fluconazole-resistant Candida albicans 632 assessed as inhibition of microbial growth by two fold broth microdilution method. Format: functional.
In assay [8] the test system is Candida albicans. Briefly: Antifungal activity against fluconazole-resistant Candida albicans 904 assessed as inhibition of microbial growth by two fold broth microdilution method. In kind it is functional.
Assay [9] deals with Candida albicans. The assay is described as follows: Antifungal activity against fluconazole-resistant Candida albicans CaR assessed as inhibition of microbial growth by two fold broth microdilution method. In kind it is functional.
Assay [10] has as its system Candida albicans. Briefly: Antifungal activity against fluconazole-resistant Candida albicans 901 assessed as inhibition of microbial growth by two fold broth microdilution method. In kind it is functional.
Assay [11] has as its system Candida albicans. The assay is described as follows: Antifungal activity against Candida albicans ATCC SC5314 assessed as decrease in fungal cell density by polarizing microscopy. In kind it is functional, organism-based.

Active and inactive are the calls of the source. The rule behind the calls is not given here. A value given as a limit tells only on which side of the number the result lay.

Regarding `O=C(NCc1cccnc1)C(=O)N/N=C/c1cccc2ccccc12`, the MIC in [1] was above 16 µg/mL; in assay [2] it was 0.5 µg/mL; in assay [3], 0.5 µg/mL; in [4], 0.25 µg/mL; in [5], 0.5 µg/mL.
With `O=C(NCc1ccncc1)C(=O)N/N=C/c1ccc2ccccc2c1`, the MIC was above 16 µg/mL in assay [1]; 0.25 µg/mL in assay [2]; 0.5 µg/mL in assay [3]; 0.25 µg/mL in assay [4]; 0.5 µg/mL in [5].
Turning to `O=C(/C=C/c1ccc2c(c1)OCCO2)NC(Cn1ccnc1)C(=O)Nc1ccccc1` (stereo unspecified), the MIC in assay [1] is above 16 µg/mL; in [2] it was 0.25 µg/mL; in assay [3], 0.25 µg/mL; in assay [4], 1 µg/mL; in assay [5], 0.5 µg/mL.
Turning to `O=C(/C=C/c1ccc2c(c1)OCCO2)NCC(=O)NCc1ccncc1`, the MIC in assay [1] is above 16 µg/mL; in assay [2], 0.5 µg/mL; in [3] it was 1 µg/mL; in assay [4] it was 0.5 µg/mL; in assay [5], 0.5 µg/mL.
With `O=C(/C=C/c1cccc2ccccc12)NCC(=O)NCc1cccnc1`, the minimal inhibitory concentration (MIC) in assay [1] was determined as 8 µg/mL; in assay [2], 0.5 µg/mL; in assay [3], 0.5 µg/mL; in [4] it was 1 µg/mL; in [5] it was 1 µg/mL.
As to `O=C(/C=C/c1ccc2ccccc2c1)NCC(=O)NCc1ccncc1`, the minimal inhibitory concentration (MIC) in assay [1] is above 16 µg/mL; in assay [2], 0.25 µg/mL; in assay [3] it was 0.25 µg/mL; in assay [4], 1 µg/mL; in assay [5] it was 0.5 µg/mL.
In the case of `O=C(/C=C/c1ccc2ccccc2c1)NCC(=O)NCc1cccnc1`, the MIC is above 16 µg/mL in [1]; 0.5 µg/mL in assay [2]; 2 µg/mL in assay [3]; 2 µg/mL in assay [4]; 0.5 µg/mL in assay [5].
Consider `O=C(NCc1cccnc1)C(=O)N/N=C/c1ccc2c(c1)OCCO2`, for which the MIC was above 16 µg/mL in [1]; 0.5 µg/mL in [2]; 1 µg/mL in assay [3]; 2 µg/mL in assay [4]; 0.5 µg/mL in assay [5].
As to `O=C(/C=C/c1cccc2ccccc12)NC(Cn1ccnc1)C(=O)NCc1ccccc1` (stereo unspecified), the minimal inhibitory concentration (MIC) in assay [1] is above 16 µg/mL; in assay [2], 0.5 µg/mL; in [3], 0.5 µg/mL; in assay [4], 2 µg/mL; in [5] it was 0.5 µg/mL.
For `O=C(/C=C/c1cccc2ccccc12)NCC(=O)NCc1ccncc1`, the MIC in assay [1] was determined as 4 µg/mL; in assay [2], 0.25 µg/mL; in assay [3], 0.25 µg/mL; in [4] it was 0.5 µg/mL; in [5] it was 0.25 µg/mL.
For `O=C(/C=C/c1ccc2ccccc2c1)NC(Cn1ccnc1)C(=O)NCc1ccccc1` (stereo unspecified), the MIC was 8 µg/mL in assay [1]; 2 µg/mL in [2]; 0.5 µg/mL in [3]; 4 µg/mL in assay [4]; 0.5 µg/mL in assay [5].
For the molecule `CN(CC(=O)NCc1ccncc1)C(=O)/C=C/c1ccc2ccccc2c1`, the minimal inhibitory concentration (MIC) in assay [6] is above 16 µg/mL; in assay [7], 8 µg/mL; in [1], 8 µg/mL; in assay [2] it was 0.25 µg/mL; in assay [3] it was 0.25 µg/mL; in assay [8], above 16 µg/mL. Also, the MIC in assay [4] is 0.25 µg/mL; in assay [9], 8 µg/mL; in assay [5] it was 0.125 µg/mL; in assay [10], above 16 µg/mL.
For the molecule `O=C(NCc1ccncc1)C(=O)N/N=C/c1ccc2c(c1)OCCO2`, the MIC in assay [1] worked out at 8 µg/mL; in assay [2] it was 0.5 µg/mL; in assay [3] it was 1 µg/mL; in assay [4], 0.5 µg/mL; in [5], 1 µg/mL.
For `CN(C/C=C/c1ccccc1)Cc1cccc2ccccc12` [NAFTIFINE], the minimal inhibitory concentration (MIC) in [6] was 8 µg/mL; in [7], 8 µg/mL; in assay [1] it was 4 µg/mL; in [2], 0.5 µg/mL; in [3], 2 µg/mL; in assay [8], 8 µg/mL. In addition, the minimum inhibitory concentration (MIC) was 0.5 µg/mL in assay [4], above 16 µg/mL in assay [9], 1 µg/mL in assay [5] and above 16 µg/mL in assay [10]. Besides, the result in assay [11] was Active.
`CN(CC(=O)NCc1cccnc1)C(=O)/C=C/c1cccc2ccccc12`: the MIC in assay [1] was above 16 µg/mL; in assay [2], 0.5 µg/mL; in assay [3], 0.5 µg/mL; in assay [4], 0.25 µg/mL; in assay [5], 0.5 µg/mL.
On to `O=C(/C=C/c1ccc2c(c1)OCCO2)NCC(=O)NCc1cccnc1`, for which the MIC is above 16 µg/mL in [1]; 2 µg/mL in assay [2]; 2 µg/mL in assay [3]; 4 µg/mL in assay [4]; 4 µg/mL in assay [5].
Turning to `O=C(/C=C/c1ccc2ccccc2c1)NC(Cn1ccnc1)C(=O)Nc1ccccc1` (stereo unspecified), the MIC in [1] is 8 µg/mL; in assay [2] it was 0.5 µg/mL; in [3], 0.5 µg/mL; in [4], 0.5 µg/mL; in assay [5], 0.25 µg/mL.
For `CN(CC(=O)NCc1ccncc1)C(=O)/C=C/c1ccc2c(c1)OCCO2`, the minimum inhibitory concentration (MIC) in [1] was above 16 µg/mL; in [2] it was 0.5 µg/mL; in [3] it was 0.5 µg/mL; in assay [4] it was 1 µg/mL; in assay [5], 1 µg/mL.
As for `CN(CC(=O)NCc1cccnc1)C(=O)/C=C/c1ccc2c(c1)OCCO2`, the minimal inhibitory concentration (MIC) in assay [1] was above 16 µg/mL; in assay [2] it was 2 µg/mL; in [3] it was 0.5 µg/mL; in [4], 4 µg/mL; in assay [5] it was 0.5 µg/mL.
Consider `CN(CC(=O)NCc1ccncc1)C(=O)/C=C/c1cccc2ccccc12`, for which the MIC in assay [1] is 4 µg/mL; in assay [2] it was 0.125 µg/mL; in assay [3] it was 0.25 µg/mL; in assay [4] it was 0.5 µg/mL; in assay [5], 0.25 µg/mL.
Turning to `O=C(NCc1cccnc1)C(=O)N/N=C/c1ccc2ccccc2c1`, the MIC in [1] amounted to 8 µg/mL; in [2], 1 µg/mL; in assay [3], 0.25 µg/mL; in assay [4], 0.5 µg/mL; in [5] it was 0.25 µg/mL.
On to `CN(CC(=O)NCc1cccnc1)C(=O)/C=C/c1ccc2ccccc2c1`, for which the minimum inhibitory concentration (MIC) in assay [1] is above 16 µg/mL; in assay [2], 0.5 µg/mL; in [3], 1 µg/mL; in [4], 0.5 µg/mL; in assay [5], 1 µg/mL.
For the molecule `O=C(/C=C/c1ccc2c(c1)OCCO2)NC(Cn1ccnc1)C(=O)NCc1ccccc1` (stereo unspecified), the MIC is above 16 µg/mL in [1]; 0.5 µg/mL in assay [2]; 0.5 µg/mL in assay [3]; 2 µg/mL in [4]; 1 µg/mL in assay [5].

In general, MIC refers to the least concentration at which growth counts as inhibited.
